The values below come from patent publication US20090281025A1, “INHIBITION OF TUMOR GROWTH AND METASTASIS BY ATF2-DERIVED PEPTIDES” (Mount Sinai School Of Medicine of New York University, priority 2004, published 2009).

One assay relates to SW1 cells. The experiment in a line: Tumor growth of SW1 cells constitutively expressing ATF2 peptides, injected subcutaneously. The note with it: 10^6 SW1 cells SC, 18 days; control construct 1100 mm^3. In kind it is in vivo, mouse. The method, then:
SW1 cells, which constitutively express the peptides indicated in FIG. 4A, were analyzed to detect expression of ATF2 peptides at the RNA level using RT-PCR. The indicated MW bands reflect the expected size product. SW1 cells (10^6) were injected subcutaneously into […] mice and tumor growth was monitored for 18 days, at which point tumors were removed and their size carefully assessed (FIG. 4B). Each group included 6 animals and each experiment was performed twice (P<0.01; T-test).
Inhibition of Tumor Growth. To examine the importance of the JNK association domain on ATF2, the possible role of a smaller peptide containing an intact JNK binding site (i.e., amino acids M^51T^52 of ATF2) was examined. To this end, three peptides of differing sizes (amino acids 51-80, 51-70, and 51-60) were compared to ATF2^51-100 peptide in their ability to inhibit tumor growth of SW1 cells in vivo. RT-PCR reactions confirmed the expression of these peptides' transcripts in the SW1 cells (FIG. 4A). […] However, expression of the 50aa peptide in these cells (constitutive expression based on selection of drug-resistant cells) decreased tumor size to 300 mm^3. Strikingly, constitutive expression of each of the 3 shorter peptides also elicited inhibition of melanoma growth that varied from 400-600 mm^3 (FIG. 4B). […] Further evaluation was performed on this 10 amino acid peptide.

Assay [1] concerns LU1205 human melanoma cells. Description: Growth of LU1205 human melanoma tumors expressing ATF2 peptide in nude mice. In kind it is in vivo, mouse. The text has this:
LU1205 or FEMX human melanoma tumor-derived cell lines that constitutively express ATF2^51-100 peptide or that contain control vector were each injected subcutaneously into a group of 6 nude mice (10^6 cells per injection) per cell line per experiment. […] The data shown represent three experiments. Bars represent standard deviation, P<0.0015. […] The data shown represent three experiments. Bars represent standard deviation, P<0.0021.
The ability of expressed ATF2^51-100 peptide to affect the tumorigenicity of human melanoma cells in vivo was examined. To this end, growth of LU1205 and FEMX human melanoma cells were monitored in nude mice in the presence or absence of treatment that induced apoptosis in vitro. LU1205, FEMX and SW-1 cells that express control or ATF2^51-100 peptide were trypsinized, resuspended in PBS and injected SC (1×10^6) into 6-7 week old mice in the lower flank. When the tumor reached the size of about 50 mm^3, 10 μM of SB203580 was injected into 4 areas of the LU1205 tumors every 4 days during a 2 week period. For FEMX tumors, UCN-01 (5 mg/Kg) was fed by gavage, three times per week for a total of 2 weeks. Tumor growth was monitored every two days. Tissue samples were fixed in formalin and embedded in paraffin. Hematoxylin and eosin (H&E), TUNEL staining was performed as previously described (Bhoumik et al., Clin. Cancer Res., 2001; 2:331-342).

Entries after “also recorded” stand apart in the source; their conditions may differ.

In the case of “ATF2^51-100: amino-terminal peptide of ATF2, amino acid residue 51 to 100 (about a 50 amino acid peptide), expressed in tumor cells (MTLKFGPARNDSVIVADQTPTPTRFLKNCEEVGLFNELASPFENEFKKAS; UniProt P15336 51-100, looked up, fragment)”, the tumor size in the assay with SW1 cells is given as 300 mm^3. In addition, the tumor growth rate result in assay [1] (LU1205 cells constitutively expressing peptide, SC in nude mice) was “reduced the growth rates; also recorded: inhibits growth”. Further, the “tumor growth with additional treatment” value in assay [1] (peptide-expressing LU1205 tumors plus p38 inhibitor SB203580 10 μM intratumoral) is given as “additional decrease in growth”.
